Read-outs that look alike come from different tables or passages of the source.
Tests used:
[1] = system: vincristine-resistant leukemia cell line, HL-60 VCR, that overexpresses p-glycoprotein; test: In vitro anti-cancer activity against HL-60 VCR cells; type: cell-based, human; details: Table 1, p-glycoprotein overexpressing
Text: (§1) For additional details pertaining to the assay, see, for example, Shoemaker, R. H., The NCI60 Human Tumour Cell line Anticancer Drug Screen, Nature Reviews, 6: 813-823, 2006, the disclosure of which is hereby incorporated by reference in its entirety.
(§2) Briefly, the cell lines comprising the National Cancer Institute Anti-cancer Drug Screen panel were obtained and processed as described previously. After an initial acquisition, in vitro expansion was followed by cryopreservation of a large number of master stock samples, for serial rethawing at 20-passage intervals. The parental cells included the small cell lung carcinoma cell line UMCC-1, the human leukemia cell line HL-60, estrogen receptor-positive MCF7 and ZR-75B human breast carcinoma cells, and estrogen receptor-negative MDA-MB231 human breast carcinoma cells. The parental cells were grown in monolayers or in suspension in Eagle's minimum essential medium containing 10% fetal bovine serum, 2 mM L-glutamine, 100 units/ml penicillin, and 100 μg/ml streptomycin in 5% CO2 at 37° C.
(§3) The current version of COMPARE is configured to calculate pairwise correlations with the log10 of one of the specific National Cancer Institute cell line activity parameters GI50, TGI, or LC50. The GI50 is the National Cancer Institute designation for a time zero-corrected IC50 value and is defined as the concentration of an agent that causes a 50% growth inhibition. Thus, log10 (GI50 values) for a seed or probe compound is correlated with the corresponding data from each compound in a database.

[2] = system: human breast cancer cell line MCF-7; test: NCI anti-cancer drug screen, growth inhibition of MCF-7 cells; type: cell-based
Text: as §1, §2, §3

[3] = system: human leukemia cell line HL-60; test: In vitro anti-cancer activity against HL-60 cells; type: cell-based; details: Table 1
Text: as §1, §2, §3

M. tuberculosis H37Rv = test: In vitro anti-tuberculosis activity, standard GAST assay; type: cell-based, Mycobacterium tuberculosis; details: in words
RXF 393 (Renal) = test: NCI anti-cancer drug screen, growth inhibition of RXF 393 cells; type: cell-based; details: Homo sapiens, Table 5
Text: as §1, §2
(§4) The current version of COMPARE is configured to calculate pairwise correlations with the log10 of one of the specific National Cancer Institute cell line activity parameters GI50, TGI, or LC50. […]

[4] = system: multiple cell lines of leukemia; test: NCI assay, multiple leukemia cell lines (FIG. 2); type: cell-based, human; details: applied at nanomolar concentrations
Text: FIG. 2 illustrates the potent anti-cancer activity of various compounds disclosed herein in the NCI assay using multiple leukemia cell lines, in accordance with various embodiments.
as §1

[5] = system: multiple colon cancer cell lines; test: NCI assay, multiple colon cancer cell lines (FIG. 3); type: cell-based, human; details: applied at nanomolar concentrations
Text: FIG. 3 illustrates the potent anti-cancer activity of various compounds disclosed herein in the NCI assay using multiple colon cancer cell lines, in accordance with various embodiments.
as §1

cell cycle = test: Cell cycle arrest (FIG. 5); type: cell-based
Text: FIG. 5 illustrates cell cycle arrest showing G2/M-phase arrest in cells treated with 1,2,3-triazole 9c (ND-6732), in accordance with various embodiments.
Without being bound by theory, it is believed that the anti-cancer activity of various disclosed compounds disclosed herein is due to antimitotic activity.

SR (Leukemia) = test: NCI anti-cancer drug screen, growth inhibition of SR cells; type: cell-based; details: Homo sapiens, Table 5
Text: as §1, §2, §4

CAKI-1 (Renal) = test: NCI anti-cancer drug screen, growth inhibition of CAKI-1 cells; type: cell-based; details: Homo sapiens, Table 5
Text: as §1, §2, §4

PC-3 (Prostate) = test: NCI anti-cancer drug screen, growth inhibition of PC-3 cells; type: cell-based; details: Homo sapiens; for IC50: Table 5
Text: as §1, §2, §3
Various analogs of the oxazole triazole scaffold were prepared and tested for their anti-cancer activity in various cellular assays (testing was done as described previously).

[6] = Homo sapiens, MCF7, Table 2, SAR truncation of aryl ether moiety, read-out: MCF7 IC50
[7] = Homo sapiens, MCF7, Table 5, read-out: IC50 MCF-7 (Breast)
[8] = MCF7, Table 1, human breast cancer cell line MCF-7, read-out: IC50 MCF-7
[9] = Homo sapiens, MCF7, Table 3, SAR truncation of aryl carboxamide moiety, read-out: MCF7 IC50
[10] = Homo sapiens, MCF7, read-out: IC50 MCF-7 (Breast)

Molecule	IC50 [2, 7] [nM]	IC50 (PC-3 (Prostate)) [nM]	further results
COc1cc2c(cc1O)CC[C@@H]1[C@@H]2CC[C@]2(C)[C@@H](O)CC[C@@H]12 [2-methoxyestradiol]	–	–	IC50 [1]: 48000 nM; IC50 ([2]; Table 1, human breast cancer cell line MCF-7, read-out: IC50 MCF-7): 1300 nM; IC50 [3]: 9150 nM
O=C(OCc1ccccc1)[C@@H]1COC(c2ccccc2OCc2ccccc2)=N1 [Compound 2]	–	–	anti-tuberculosis activity (M. tuberculosis H37Rv): exhibited anti-tuberculosis activity with potency similar to that of Mycobactin S
COc1ccc(CNC(=O)c2coc(-c3cccc(Cl)c3)n2)cc1OC [Compound 3]	–	–	anti-tuberculosis activity (M. tuberculosis H37Rv): active against M. tuberculosis
C#CCNC(=O)c1coc(-c2ccccc2)n1 [Compound 8a]	–	–	IC50 [2, 6]: > 20000 nM
O=C(NCc1cn(Cc2ccccc2)nn1)c1coc(-c2ccccc2)n1 [Compound 9a]	–	–	IC50 [2, 6]: 4000 nM
O=C(NCc1cn(Cc2cccc(Oc3ccccc3)c2)nn1)c1coc(-c2ccccc2)n1 [Compound 9c]	302	504	IC50 (RXF 393 (Renal)): 299 nM; growth inhibition of multiple cell lines of leukemia [4]: ≥ 50%; growth inhibition of multiple cell lines of colon cancer [5]: ≥ 50%; IC50 ([1]; Homo sapiens, HL60/VCR): 12200 nM; cell cycle arrest (cell cycle): cell cycle arrest at the G2M phase of mitosis; GI50 ([2]; Homo sapiens, MCF7): 302 nM; IC50 [2, 6]: 500 nM; IC50 [2, 8]: 500 nM; IC50 (SR (Leukemia)): 484 nM; IC50 (CAKI-1 (Renal)): 392 nM; GI50 (PC-3 (Prostate)): 504 nM; IC50 [3]: 7900 nM
O=C(NCc1cn(Cc2cccc(Oc3ccccc3)c2)nn1)c1ccccn1 [Compound 14]	–	–	IC50 [2, 9]: 70 nM
O=C(NCc1cn(Cc2cccc(Oc3ccccc3)c2)nn1)c1cocn1 [Compound 15]	–	–	IC50 [2, 9]: 1000 nM
O=C(NCc1cn(Cc2cccc(Oc3ccccc3)c2)nn1)c1ccccc1 [Compound 16]	–	–	IC50 [2, 9]: 200 nM
CC(=O)NCc1cn(Cc2cccc(Oc3ccccc3)c2)nn1 [Compound 17]	–	–	IC50 [2, 9]: 6000 nM
COc1ccc(-c2nc(C(=O)Nc3cn(Cc4ccc(Oc5ccccc5)cc4)nn3)co2)cc1 [ND-007887]	937	1250	–
COc1ccc(-c2nc(CNCc3cn(Cc4ccc(Oc5ccccc5)cc4)nn3)co2)cc1 [ND-008169]	3000	10000	–
CCCCCCCCn1cc(CNCc2coc(-c3ccc(OC)cc3)n2)nn1 [ND-008171]	15000	> 100000	–
COc1ccc(-c2ccc(CNCc3cn(Cc4ccc(Oc5ccccc5)cc4)nn3)s2)cc1 [ND-008174]	3000	10000	–
CC(C)(C)[Si](C)(C)Oc1cccc(Cn2cc(CNC(=O)c3coc(-c4ccc(Cl)cc4)n3)nn2)c1 [ND-008183]	–	> 50000	IC50 [2, 10]: 13000 nM
O=C(NCc1cn(Cc2cccc(Oc3ccccc3)c2)nn1)c1coc(-c2ccc(Cl)cc2)n1 [ND-008186]	4000	2400	–
Cc1ccc(Cn2cc(CNC(=O)c3coc(-c4ccc(C)cc4)n3)nn2)cc1 [ND-008465]	8000	20000	–
Cc1ccc(-c2nc(C(=O)NCc3cn(Cc4cccc(Oc5ccccc5)c4)nn3)co2)cc1 [ND-008467]	300	1000	–
Cc1ccc(-c2nc(C(=O)NCc3cn(Cc4cccc(O[Si](C)(C)C(C)(C)C)c4)nn3)co2)cc1 [ND-008468]	–	20000	IC50 [2, 10]: 15000 nM
CCCCCCCCn1cc(CNC(=O)c2coc(-c3ccc(C)cc3)n2)nn1 [ND-008469]	20000	> 20000	–
Cc1ccc(-c2nc(C(=O)NCc3cn(C45CC6CC(CC(C6)C4)C5)nn3)co2)cc1 [ND-008470]	> 20000	> 20000	–
O=C(NCc1cn(C23CC4CC(CC(C4)C2)C3)nn1)c1coc(-c2ccc(Cl)cc2)n1 [ND-008471]	> 20000	> 20000	–
CC(=O)NCc1cn(Cc2cccc(Oc3ccccc3)c2)nn1 [ND-008492]	6000	17000	–
OCc1cn(Cc2cccc(Oc3ccccc3)c2)nn1 [ND-008493]	> 20000	> 20000	–
O=C(NCc1cn(Cc2cccc(Oc3ccccc3)c2)nn1)c1ccccn1 [ND-008504]	150	300	–
O=C(NCc1cn(Cc2cccc(Oc3ccccc3)c2)nn1)c1cocn1 [ND-008505]	1000	1000	–
O=C(NCc1cn(Cc2cccc(Oc3ccccc3)c2)nn1)c1ccccc1 [ND-008506]	200	500	–
CC[C@]1(O)C[C@H]2CN(CCc3c([nH]c4ccccc34)[C@@](C(=O)OC)(c3cc4c(cc3OC)N(C=O)[C@H]3[C@@](O)(C(=O)OC)[C@H](OC(C)=O)[C@]5(CC)C=CCN6CC[C@]43[C@@H]65)C2)C1 [vincristine]	–	–	IC50 ([1]; Homo sapiens, HL60/VCR): > 100000 nM; IC50 [2, 8]: 200 nM; IC50 [3]: 570 nM
Mycobactin S [reference compound]	–	–	anti-tuberculosis activity (M. tuberculosis H37Rv): exhibits anti-tuberculosis activity
